Test results published in US5252718A, “Fibroblast growth factor antagonists” (The Salk Institute for Biological Studies, priority 1992, dated 1993).
Ends that are not written are not given here. Peptide text beside a SMILES is read from it.

System: BAAE cells
Format: cell-based, bovine
Details: for antagonist activity to both basal and bFGF-stimulated endothelial cell growth: result in words; for reducing cell population, bFGF-stimulated endothelial cell growth / reducing cell population, basal endothelial cell growth: manner of Example II, concentration not given
Experimental: To determine the effectiveness of the bFGF fragment peptide to inhibit the growth of endothelial cells, the peptide is tested under conditions to measure its ability to modulate both basal cell growth and bFGF-simulated cell proliferation. A bioassay was employed of the type set forth in detail in Gospodarowicz et al., J. Cell Biol., 122, 323-333 (1985), using BAAE cells.
For each test, an initial cell density of between about 0.3-0.5×10^4 cells per well was established in 24-miniwell plates. After 6-8 hours, the cells in each well were treated with a challenge dose of bFGF in the absence, or presence to a varying concentration, of a synthetic FGF antagonist. The precise treatment was repeated 48 hours later. On the fifth day, the cells were digested with trypsin, and the total number of cells in each well was determined using a Coulter particle counter.

| Compound | antagonist activity to both basal and bFGF-stimulated endothelial cell growth | reducing cell population, bFGF-stimulated endothelial cell growth | reducing cell population, basal endothelial cell growth | ID50 |
| --- | --- | --- | --- | --- |
| H-HPDGRVDAVREKTDPH-NH2 [[Ala^42, Thr^47]-bFGF(35-50)-NH2, H-His-Pro-Asp-Gly-Arg-Val-Asp-Ala-Val-Arg-Glu-Lys-Thr-Asp-Pro-His-NH2] | full antagonist activity | – | – | – |
| H-LRIHPDGRVDGVREKSDPHIKL-NH2 [bFGF(32-53)-NHz, H-Leu-Arg-Ile-His-Pro-Asp-Gly-Arg-Val-Asp-Gly-Val-Arg-Glu-Lys-Ser-Asp-Pro- His-Ile-Lys-Leu-NH2] | weak antagonist activity | – | – | – |
| H-YFLRIHPDGRVDGVREKSDPY-OH [[Tyr30,50]-bFGF(30-50)-OH, H-Tyr-Phe-Leu-Arg-Ile-His-Pro-Asp-Gly-Arg-Val-Asp-Gly-Val-Arg-Glu-Lys-Ser- Asp-Pro-Tyr-OH] | full antagonist activity | – | – | – |
| H-FFLRIHPDGRVDGVREKSDP-NH2 [bFGF(30-49)-NH2, H-Phe-Phe-Leu-Arg-Ile-His-Pro-Asp-Gly-Arg-Val-Asp-Gly-Val-Arg-Glu-Lys-Ser- Asp-Pro-NH2] | full antagonist activity | – | – | – |
| H-LRIHPDGR-NH2 [bFGF(32-39)-NHz, H-Leu-Arg-Ile-His-Pro-Asp-Gly-Arg-NH2] | full antagonist activity | about 11% | about 37% | – |
| N=C(N)NCCC[C@H](NC(=O)CNC(=O)[C@H](CC(=O)O)NC(=O)[C@@H]1CCCN1)C(N)=O [bFGF(36-39)-NH2, H-Pro-Asp-Gly-Arg-NH2] (H-PDGR-NH2) | full antagonist activity | about 54% | about 37% | 30 to 50 µM |
| H-HPDGRVDGVREKSDPH-NH2 [bFGF(35-50)-NH2, H-His-Pro-Asp-Gly-Arg-Val-Asp-Gly-Val-Arg-Glu-Lys-Ser-Asp-Pro-His-NH2] | full antagonist activity | – | – | – |
| H-FFLRIHPDGRVDGVREKSDPY-NH2 [[Tyr^50]-bFGF(30-50)-NHz, H-Phe-Phe-Leu-Arg-Ile-His-Pro-Asp-Gly-Arg-Val-Asp-Gly-Val-Arg-Glu-Lys-Ser- Asp-Pro-Tyr-NH2] | full antagonist activity | about 6% | about 19% | – |
| YCKNGGFFLRIHPDGRVDGVREKSDPHIKLQLQAEERGVV-NH2 [bFGF(24-63)-NH2, H-Tyr-Cys-Lys-Asn-Gly-Gly-Phe-Phe-Leu-Arg-Ile-His-Pro-Asp-Gly-Arg-Val-Asp- Gly-Val-Arg-Glu-LysSer-Asp-Pro-His-Ile-Lys-Leu-Gln-T-Gln-Ala -Glu-Glu-Arg-Gly-Val-Val-NH2] | full antagonist activity | – | – | – |
| H-PDGRVDAVREKSDPHIKLQLQAEERGVVSIKGV-NH2 [[Ala^42]-bFGF(36-68)-NH2, H-Pro-Asp-Gly-Arg-Val-Asp-Ala-Val-Arg-Glu-Lys-Ser-Asp-Pro-His-Ile-Lys-Leu- Gln-Leu-Gln-Ala-Glu Glu-Arg-Gly-Val-Val-Ser-Ile-Lys-Gly-Val-NH2] | full antagonist activity | – | – | – |
| YCKNGGFFLRIHPDGRVDGVREKSDPHIKLQLQAEERGVVSIKGV [bFGF(24-68)-OH] | – | – | – | about 5 micromolar |
| YCKNGGFFLRIHPDGRVDGVREKADPHIKLQLQAEERGVV-NH2 [[Ala^47]-bFGF(24-63)-NH2] | full antagonist activity | – | – | – |
